Assay results taken from PMC4018403, “Transient Receptor Potential Ankyrin 1 Receptor Activation In Vitro and In Vivo by Pro-tussive Agents: GRC 17536 as a Promising Anti-Tussive Therapeutic” (PLoS ONE, 2014).

How the values were obtained:
[1] = tested on: citric acid induced cough response; experiment: Citric acid induced conscious cough model; type: in vivo, guinea pig; conditions: 30 mg/kg i.p., 2 h before citric acid aerosol (0.4 M)
Method: Male Hartley guinea pigs (200–600 g, Harlan, UK) were acclimatized in cages (20–22°C, with a light/dark cycle of 12/12 hours) before beginning of the experiments and were maintained on an ad lib standard guinea pig pellet diet and water containing dietary amounts of ascorbic acid.
Cough was detected both by pressure change and by sound and recorded with a Buxco cough analyzer (Buxco, Wilmington, NC, USA) as described earlier. Guinea pigs were randomly assigned to various test groups and were treated with different doses of GRC 17536 or Dextromethorphan i.p. before tussive challenge. The Vehicle control group received only 0.5% methyl cellulose. Two hours after i.p. administration of vehicle or test compounds, animals were placed in individual whole body plethysmographs and were exposed to citric acid aerosol (0.4 M) and the incidences of cough were recorded for 10 minutes with the help of Buxco cough analyzer.
For in vitro experiments, data was analyzed using GraphPad Prism 3.0 (GraphPad Software Inc. San Diego, CA, USA). For in vivo experiment, data from the treatment groups were compared with the control group. Mean values were statistically analyzed by one-way analysis of variance (ANOVA) followed by the Dunnett's Multiple Comparisons Test to evaluate significant differences between groups.

TRPA1 [2] = molecular target: T1, TRPA1 (Homo sapiens, UniProt O75762); experiment: Citric acid-induced Ca+2 influx in CCD19-Lu cells; type: cell-based; set-up: A549 cells have been reported to express endogenous TRPA1; host or cells: A549; conditions: up to 10 µM antagonist
Method: (§1) Human lung fibroblast cells, CCD19-Lu (ATCC CCL-210) were obtained from American Type Culture Collection (ATCC; Rockville, MD, USA) and cultured in MEM supplemented with 10% FBS. Human pulmonary alveolar epithelial cell line A549 (ATCC CCL-185) was also obtained from ATCC and maintained in DMEM F-12 supplemented with 10% FBS. Both the cell types were cultured at 37°C in humidified air containing 5% CO2. Chinese hamster ovary (CHO) cells stably expressing human TRPA1 (hTRPA1/CHO), TRPV1 (hTRPV1/CHO), TRPV3 (hTRPV3/CHO), TRPV4 (hTRPV4/CHO and TRPM8 (hTRPM8/CHO were generated in-house and maintained in DMEM F-12 supplemented with 10% FBS and G418.
(§2) Fluorimetric and radiometric Ca^+2 influx assay was performed as described earlier. GRC 17536, GRC 17770, compound 7 or GRC 6211 was added to the cells 15 minutes prior to addition of agonist. Citric acid stock solution (1 M) was prepared in dH2O. Subsequent dilutions were made in Ca^+2, Mg^+2 free PBS (pH 7.3). No significant change in pH was observed upto 10 mM citric acid. At 30 mM concentration of citric acid, the pH of the solution dropped to 5.5. TLR ligands - LPS (10 µg/ml, TLR4), loxoribine (10 µM, TLR7) and ssRNA40 (1 µg/ml, TLR8) were dissolved in media and added to the cells for 16–18 hours. TRP selectivity of GRC 17536 and compound 7 was performed for TRPV1, TRPV3, TRPV4 and TRPM8 using Capsaicin (1 µM), 2-APB (1 mM), 4α-PDD (30 µM) and Icilin (250 nM) respectively, as agonist.

TRPA1 [3] = molecular target: T1, TRPA1; experiment: Citric acid-induced Ca+2 influx in A549 cells; type: cell-based; set-up: A549 cells have been reported to express endogenous TRPA1; host or cells: A549; conditions: up to 10 µM antagonist
Method: as §1, §2

T1 sequence (O75762 whole entry): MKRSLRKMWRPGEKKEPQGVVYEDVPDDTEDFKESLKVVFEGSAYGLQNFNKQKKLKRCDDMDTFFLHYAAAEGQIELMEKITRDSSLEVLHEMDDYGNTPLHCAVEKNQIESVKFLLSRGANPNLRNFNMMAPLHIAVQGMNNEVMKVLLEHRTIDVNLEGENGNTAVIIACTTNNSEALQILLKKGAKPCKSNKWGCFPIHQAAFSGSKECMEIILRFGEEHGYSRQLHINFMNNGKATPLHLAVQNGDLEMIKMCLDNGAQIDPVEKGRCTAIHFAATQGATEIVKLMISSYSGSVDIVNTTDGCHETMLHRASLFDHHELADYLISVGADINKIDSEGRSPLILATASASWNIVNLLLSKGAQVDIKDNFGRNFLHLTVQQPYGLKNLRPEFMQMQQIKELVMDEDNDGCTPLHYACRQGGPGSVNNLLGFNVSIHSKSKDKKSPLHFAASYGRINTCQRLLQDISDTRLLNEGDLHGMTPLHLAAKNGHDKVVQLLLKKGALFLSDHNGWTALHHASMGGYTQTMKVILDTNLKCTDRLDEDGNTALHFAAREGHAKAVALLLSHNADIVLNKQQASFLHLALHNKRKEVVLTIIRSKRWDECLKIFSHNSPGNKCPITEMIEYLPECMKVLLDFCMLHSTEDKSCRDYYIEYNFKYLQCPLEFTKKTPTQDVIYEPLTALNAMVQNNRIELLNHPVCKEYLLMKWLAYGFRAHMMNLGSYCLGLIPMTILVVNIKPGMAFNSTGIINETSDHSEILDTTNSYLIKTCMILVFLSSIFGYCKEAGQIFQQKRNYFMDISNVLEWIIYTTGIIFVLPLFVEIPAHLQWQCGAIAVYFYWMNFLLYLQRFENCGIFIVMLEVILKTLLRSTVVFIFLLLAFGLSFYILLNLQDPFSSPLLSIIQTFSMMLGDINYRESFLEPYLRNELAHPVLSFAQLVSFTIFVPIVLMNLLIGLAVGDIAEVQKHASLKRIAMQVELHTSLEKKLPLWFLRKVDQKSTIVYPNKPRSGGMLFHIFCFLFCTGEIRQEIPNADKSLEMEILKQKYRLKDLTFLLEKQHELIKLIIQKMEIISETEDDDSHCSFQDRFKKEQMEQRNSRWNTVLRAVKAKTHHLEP

Structure (SMILES) | Inhibition of cough response [1] | Inhibition of citric acid induced increase in Ca+2 (TRPA1 [2]) | Inhibition of citric acid induced increase in Ca+2 (TRPA1 [3])
COc1ccc2c(c1)[C@]13CCCC[C@@H]1[C@H](C2)N(C)CC3 [Dextromethorphan, reference compound] | 66% |  | 
O=C(Nc1cccc2cnccc12)N[C@@H]1CC2(CCC2)Oc2ccc(F)cc21 [GRC 6211] |  | failed to inhibit | failed to inhibit
